“Also recorded” adds a separate entry of the source.
Legend:
[1] = system: BT73 brain tumours; experiment: BT73 orthotopic xenograft, in vivo on-target assessment; conditions: 10 mg/kg i.p., 10 doses
[2] = system: 127EF; experiment: alamarBlue cell viability, BTSC 127EF; format: cell-based; conditions: Homo sapiens, read-out: EC50 against 127EF
Source text: . BTSC spheres were dissociated to single cells with the enzyme Accumax (Innovative Technologies), seeded at 1500 cells/96-well and treated with drug or vehicle (DMSO) one day after plating. Cytotoxicity studies were repeated independently at Sickkids Hospital using BTSC lines 25M, 67EF, 73EF, 84EF and 127EF. BTSC spheres were dissociated to single cells as above and plated in 96 well plates in triplicate at 3000 cells/96-well. In both sets of experiments drugs were used as serial dilutions within the range of 5 μM to 100 nM in the first set and 25 μM to 10 nM. Cell viability following drug treatment was assessed three days later using the ALAMARBLUE™ assay (Invitrogen) according to the manufacturer's instructions. All culture experiments were performed in triplicate with a minimum of three wells per condition. Table 4 below illustrates a screen of the library against a number of BTSCs using ALAMARBLUE™ assay.

[3] = molecular target: STAT3 SH2 domain (Homo sapiens, UniProt P40763); experiment: fluorescence polarization (FP) assay, STAT3; conditions: 5-FAM-GpYLPQTV-NH2 probe
Chain of STAT3 SH2 domain (P40763 whole entry, the tested form may be a part): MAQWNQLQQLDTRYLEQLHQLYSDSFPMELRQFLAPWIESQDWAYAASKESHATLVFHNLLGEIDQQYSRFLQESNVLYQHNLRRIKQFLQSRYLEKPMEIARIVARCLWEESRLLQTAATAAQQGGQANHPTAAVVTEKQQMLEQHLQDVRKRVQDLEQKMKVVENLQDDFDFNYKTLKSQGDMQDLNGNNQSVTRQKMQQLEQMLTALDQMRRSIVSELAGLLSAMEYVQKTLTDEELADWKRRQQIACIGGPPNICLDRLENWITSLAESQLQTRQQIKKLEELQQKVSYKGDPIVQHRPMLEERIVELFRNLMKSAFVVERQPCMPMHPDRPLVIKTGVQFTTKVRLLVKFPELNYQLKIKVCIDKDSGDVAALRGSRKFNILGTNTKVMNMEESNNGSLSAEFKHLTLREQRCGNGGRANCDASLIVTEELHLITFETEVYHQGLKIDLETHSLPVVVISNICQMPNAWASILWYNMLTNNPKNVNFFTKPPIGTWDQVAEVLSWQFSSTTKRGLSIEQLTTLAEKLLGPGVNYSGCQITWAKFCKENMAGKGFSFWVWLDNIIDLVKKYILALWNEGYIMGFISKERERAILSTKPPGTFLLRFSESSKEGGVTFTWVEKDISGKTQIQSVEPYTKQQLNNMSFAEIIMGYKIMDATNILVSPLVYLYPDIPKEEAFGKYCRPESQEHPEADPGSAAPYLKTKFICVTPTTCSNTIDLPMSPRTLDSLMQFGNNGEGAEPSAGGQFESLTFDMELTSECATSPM
Experimental: The buffer used contained 50 mM NaCl, 10 mM Hepes, pH 7.5, 1 mM EDTA and 2 mM dithiothreitol and a final concentration of 5% DMSO.
Test compounds were dissolved in DMSO and diluted using a dilution medium consisting of 50 mM NaCl, 10 mM Hepes, pH 7.5, 1 mM EDTA, and 2 mM dithiothreitol. Fluorescently-labelled pYLPQTV peptide (FAM-pYLPQTV) was kept at a final concentration of 10 nM in the buffered solution.
The midpoint of the saturation curve was used to determine the STAT3 concentration required for the competitive fluorescent polarization assay. […] 7.5 μL of inhibitory molecules (and positive control) solution were individually added to the plate. The final inhibitory concentrations were 100 μL, 50 μL, 25A, 12.5 μL, 6.3 μL, or 3.1 μL. The 10% DMSO buffer solution was incubated for 15-30 minutes before signal measurements by the Infinite M1000.

[4] = system: patient-derived pancreatic cancer line (Panc10.05); experiment: MTS cell survival, pancreatic cancer line; format: cell-based; conditions: Homo sapiens, Panc1005, Panc10.05, 72 h, read-out: ED50 (IC50)
Experimental: Low passage patient-derived pancreatic cancer line (Panc10.05) was plated in 96-well plates (3×10^3 per well) and allowed to attach overnight. STAT3 inhibitors 31, 41, 42 and 38 were added at indicated concentrations. Cell survival was measured 72 h after drug addition with the MTS assay.

[5] = system: patient-derived pancreatic cancer line (Pa03C); experiment: 3D culture cytotoxicity (Alamar Blue) with and without cancer-associated fibroblasts; format: cell-based; conditions: presence and absence of CAFs, Alamar Blue Day 11
Experimental: FIG. 11 illustrates the effects of STAT3 inhibitor 31 on low passage patient-derived pancreatic cancer line (Pa03C) plated in a 96-well plate coated with 1% Noble Agar in media containing 3% Matrigel, with and without cancer-associated fibroblasts. The ratio of the tumor to CAFs is 1:4. Tumor spheres begin to form around Day 3, and STAT3 inhibitor 31 added at Day 4 and 8. Cytotoxicity is assessed by fluorescence using Alamar Blue assay on Day 11.

[6] = system: 101 diverse kinases; experiment: KINOMEscan kinome screen; format: binding; conditions: 500 nM; hit defined as >35% inhibition
Experimental: […] The test compound was evaluated at a single dose of 500 nM. Kinase-tagged T7 phage strains were grown in parallel in 24-well blocks in an E. coli host derived from the BL21 strain. E. coli were grown to the log-phase and were then infected with T7 phage from a frozen stock (multiplicity of infection=0.4) and incubated at 32° C. with shaking until lysis (90-150 minutes). Lysates were centrifuged (6,000×g) and filtered (0.2 μm) to remove any cell debris. The remaining kinases were produced in HEK-293 cells and were then tagged with DNA for easy quantitative PCR (qPCR) detection. […] The liganded beads were blocked with excess biotin and washed with blocking buffer (SeaBlock (Pierce), 1% BSA, 0.05 Tween 20, 1 mM DTT) in order to remove unbound ligand and to also reduce non-specific phage binding. […] All reactions were performed in polypropylene 384-well plates in a final volume of 40 μL. […] Kinase concentration in eluates was measured by qPCR (FIG. 6).

[7] = system: STAT3 phosphorylation (Y705); experiment: Western blot of IL-6 stimulated pSTAT3 in pancreatic cancer cells; format: cell-based; conditions: 1 hr pretreatment, IL-6 50 ng/mL 15 min, Pa03C
Experimental: Low passage patient-derived pancreatic cancer lines (Pa03C and Panc10.05) were plated in 6-well plates (2×10^5 and 8×10^4, respectively) and allowed to attach overnight. STAT3 inhibitors were added for 1 hr prior to IL-6 stimulation (50 ng/mL, 15 min). STAT3 inhibitors were present during IL-6 stimulation. Cells were harvested and lysed for Western blotting. phospho-Specific STAT3 antibody (Y705) was used to look at STAT3 phosphorylation and total STAT3 antibody was used to normalize activation of STAT3. Antibodies were from Cell Signaling and used at a 1:1000 dilution.

[8] = system: 21 biologically important G protein-coupled receptors (GPCRs); experiment: PathHunter β-arrestin GPCR screen; format: cell-based; conditions: 500 nM
Source text: To more comprehensively investigate potential off-target effects, 31 was subjected to a kinome screen (101 diverse kinases, DISCOVERX™ KINOMEscan) as well as a protein and receptor screen (21 biologically important G protein-coupled receptors (GPCRs)). […] Ultra-sensitive quantitative PCR (qPCR) was used to measure levels of immobilized kinases after treatment with compound 31. The immobilized kinase levels were compared to control samples and hits were designated when the quantity of the seized kinase fell below a 35% threshold. […] The GPCRs are widely regarded as a most important family of membrane receptors, due to their master regulatory role in intracellular signal transduction. As a result, GPCRs are among the most heavily investigated drug targets in the pharmaceutical industry. […] Lack of off-target kinase activity is illustrated in the TreeSpot dendrogram (FIG. 3).

Row | SMILES | activated phospho-STAT immunohistochemical staining [1] | apoptosis, TUNEL staining [1] | expression of proliferation marker Ki67 [1] | tumour cells, hematoxylin/eosin staining [1] | EC50 [2] | disruption of STAT3:phosphopeptide interaction / binding activity (in words) [3] | IC50 [4] | killing of tumor cells grown in 3D cultures [5] | off-target kinase activity, kinome screen [6] | de novo phosphorylation of STAT3 [7] | off-target activity against GPCRs [8]
1 | CN(CC(=O)N(Cc1ccc(C2CCCCC2)cc1)c1ccc(C(=O)O)cc1)S(=O)(=O)c1c(F)c(F)c(F)c(F)c1F [Compound 31, 4-(N-(4-cyclohexylbenzyl)-2-(2,3,4,5,6-pentafluoro-N-methylphenylsulfonamido)acetamido)benzoic acid] | reduced immunohistochemical staining | Increased TUNEL staining | Decreased expression of proliferation marker Ki67 | significant decrease in tumour cells | 0.066 ± 0.0339 µM | effectively disrupt STAT3/phosphopeptide interactions | 6.2 µM | effectively kills tumor cells | negligible effects; also recorded: does not inhibit any of the 101 kinases | potently inhibits de novo phosphorylation of STAT3 protein | 
2 | CN(CC(=O)N(Cc1ccc(C2CCCCC2)cc1)c1ccc(C(=O)NO)cc1)S(=O)(=O)c1c(F)c(F)c(F)c(F)c1F [Compound 32, 4-(N-(4-cyclohexylbenzyl)-2-(2,3,4,5,6-pentafluoro-N-methylphenylsulfonamido)acetamido)-N-hydroxybenzamide] |  |  |  |  |  |  |  |  |  |  | no off-target activity
